Patent EP2540163A1, “Nematocide N-cyclopropyl-sulfonylamide derivatives” (Bayer CropScience AG, priority 2011, dated 2013)

Assay: logP by HPLC on reversed-phase column (C 18), EEC Directive 79/831 Annex V.A8, Method B (0.1% aqueous formic acid / acetonitrile, 40°C)
Type: physicochemical
Conditions: c18 reversed-phase hplc; LogP method B: HPLC reversed-phase C 18, 40°C, 0.1% aqueous formic acid / acetonitrile
Protocol: Calibration was carried out using unbranched alkan-2-ones (having 3 to 16 carbon atoms) with known logP values (determination of the logP values by the retention times using linear interpolation between two successive alkanones).

Compound	chromatographic logP
CCc1nn(C)c(F)c1C(=O)N(C1CC1)S(=O)(=O)c1ccc(Oc2ccc(Cl)cc2)cc1 [compound 391]	4.2
COc1nn(C)cc1C(=O)N(C1CC1)S(=O)(=O)c1c(Cl)cc(C(F)(F)F)cc1Cl [compound 396]	3
COc1cscc1C(=O)N(C1CC1)S(=O)(=O)c1ccc(Cl)c(Cl)c1Cl [compound 27]	3.9
Cn1nc(C2CC2)c(C(=O)N(C2CC2)S(=O)(=O)c2ccc(Cl)c(Cl)c2Cl)c1Cl [compound 223]	4.2
Cn1ncc(I)c1C(=O)N(C1CC1)S(=O)(=O)c1cccc(Cl)c1Cl [compound 662]	2.8
CCOc1nn(C)cc1C(=O)N(C1CC1)S(=O)(=O)c1ccc(Oc2ccc(C(F)(F)F)cc2)c(Cl)c1 [compound 550]	4.4
Cc1nn(C)c(Oc2ccc(Cl)cc2)c1C(=O)N(C1CC1)S(=O)(=O)c1ccccc1Cl [compound 261]	3.6
O=C(c1ccsc1I)N(C1CC1)S(=O)(=O)c1cccc(Cl)c1Cl [compound 19]	3.8
Cn1nc(C2CC2)c(C(=O)N(C2CC2)S(=O)(=O)c2ccc(Cl)c(Cl)c2Cl)c1F [compound 224]	3.9
O=C(c1cccnc1F)N(C1CC1)S(=O)(=O)c1cccc(Cl)c1Cl [compound 649]	2.4
CCOc1nn(C)cc1C(=O)N(C1CC1)S(=O)(=O)c1ccc(Oc2ccc(Cl)cc2)c(Cl)c1 [compound 545]	4.3
CC(C)c1nn(C)c(F)c1C(=O)N(C1CC1)S(=O)(=O)c1ccc(C(F)(F)F)cc1Cl [compound 97]	4
CC(F)c1nn(C)cc1C(=O)N(C1CC1)S(=O)(=O)c1cccc(Cl)c1Cl (centres unmarked) [compound 119]	2.8
CCCOc1nn(C)cc1C(=O)N(C1CC1)S(=O)(=O)c1ccc(Oc2ccc(Br)c(Cl)c2)cc1Br [compound 304]	5
CCOc1nn(C)cc1C(=O)N(C1CC1)S(=O)(=O)c1ccc(Oc2ccc(C(F)(F)F)cc2)cc1Cl [compound 538]	4.1
CCOc1nn(C)cc1C(=O)N(C1CC1)S(=O)(=O)c1ccc(Oc2ccc(Cl)cc2Cl)cc1Cl [compound 543]	4.3
Cc1cc(C(=O)N(C2CC2)S(=O)(=O)c2ccc(Cl)c(Cl)c2Cl)nn1C [compound 75]	3.3
CCOc1nn(C)cc1C(=O)N(C1CC1)S(=O)(=O)c1ccc(Oc2ccc(C)nc2)cc1Cl [compound 525]	2.2
Cn1nc(-c2ccccc2)c(C(=O)N(C2CC2)S(=O)(=O)c2ccc(Cl)c(Cl)c2Cl)c1F [compound 100]	4.3
COc1nn(C)c(Cl)c1C(=O)N(C1CC1)S(=O)(=O)c1ccc(Oc2ccc(Br)cc2)cc1 [compound 284]	4.3
CCc1nn(C)c(F)c1C(=O)N(C1CC1)S(=O)(=O)c1c(C)nn(C)c1Cl [compound 382]	2.3
COc1nn(C)cc1C(=O)N(C1CC1)S(=O)(=O)c1c(C)nn(C)c1Cl [compound 444]	1.7
Cn1nc(C(F)F)c(C(=O)N(C2CC2)S(=O)(=O)c2cccc(Cl)c2Cl)c1F [compound 104]	3.2
COc1nn(C)c(Cl)c1C(=O)N(C1CC1)S(=O)(=O)c1ccc(Oc2ccccc2)cc1 [compound 280]	3.8
Cc1cc(Cl)cc(Cl)c1S(=O)(=O)N(C(=O)c1c(C(F)(F)F)nn(C)c1F)C1CC1 [compound 367]	2.6
Cn1nc(C(F)(F)F)c(C(=O)N(C2CC2)S(=O)(=O)c2ccc(Cl)c(Cl)c2Cl)c1F [compound 108]	4.1
Cn1nc(C(F)(F)F)c(C(=O)N(C2CC2)S(=O)(=O)c2c(Cl)cc(Cl)cc2Cl)c1F [compound 363]	3.7
CCOc1nn(C)cc1C(=O)N(C1CC1)S(=O)(=O)c1ccc(Oc2cccc(Br)c2)c(Cl)c1 [compound 551]	4.5
Cn1nc(C(F)(F)F)c(C(=O)N(C2CC2)S(=O)(=O)c2cccc(Cl)c2Cl)c1F [compound 357]	3.3
